{
  "source": "paper PMC8405463",
  "about": "“Development of a method for assessing the accumulation and metabolization of antidepressant drugs in zebrafish (Danio rerio) eleutheroembryos” (Analytical and Bioanalytical Chemistry, 2021)",
  "key": {"[1]": {"parameters": "method as in earlier work", "conditions": "ref EPI suite (Experimental database or KOWWIN v1.67) and ChemAxon; cited from earlier work"}, "[2]": {"conditions": "ref SCIfinder; cited from earlier work"}, "[3]": {"system": "zebrafish (Danio rerio) eleutheroembryos", "experiment": "SSRI metabolization in eleutheroembryos exposed to the mixture of parent compounds", "protocol": "(§1) […] The concentration of the target analyte was determined in both eleutheroembryos and exposure medium all throughout the experiment.\n(§2) Fish roe samples from lumpfish and zebrafish eleutheroembryos: 10 mg of wet weigh (w/w) fortified with a solution containing all tested pharmaceuticals at 240 ng·g^-1 and paroxetine d6 as IS at 100 ng·g^-1 was a mixture with 500 μL of acetonitrile and sonicated with ultrasonic probe at 40% of amplitude for 60 s to assist the extraction of the selected compounds and the mixture was centrifuged. The residue was discarded, and the supernatant was cleaned using 100 mg of C18, vortexed for 30 s, and centrifuged. Acetonitrile was led to evaporation before derivatization and injection to the GC-MS following the same steps as described above."}, "[4]": {"experiment": "SSRI metabolization in eleutheroembryos exposed to the mixture of parent compounds", "conditions": "zebrafish (Danio rerio), whole eleutheroembryos (larvae), other: waterborne exposure in exposure medium, pH 7.8, metabolite concentration in eleutheroembryos; for concentration at 6 h: t = 6h; for concentration at 24 h: t = 24h; for concentration at 45 h: t = 45h; for concentration at 48 h: t = 48h", "protocol": "as §1, §2"}, "human liver microsomes": {"system": "human liver microsomes", "parameters": "method as in PMID 1389950", "conditions": "citalopram metabolized by cytochrome P450 isozyme to N-desmethylcitalopram; cited from earlier work"}, "[5]": {"system": "zebrafish (Danio rerio) eleutheroembryos", "experiment": "Bioconcentration experiment (OECD 305 based), 48 h exposure", "type": "in vivo", "conditions": "pH 7.8; for BCF48h: Cf(48h)/Cw(48h); for BCFk: k1/k2, first-order one-compartment model, 48 h", "protocol": "Zebrafish eleutheroembryos were cultured from wild-type adult zebrafish bred and maintained in AZTI Zebrafish Facility (REGA ES489010006105) under standard conditions. The OECD 305 technical guidance was used as reference to establish the experimental conditions for growing as well as the nominal concentrations for the contaminants (dissolved oxygen ≥ 60 %, 27°C and pH 7.8 ± 0.2). Exposure solutions were prepared with the composition of fresh river water (ISO 73463 [43]): 220.5 mg of CaCl2, 63 mg of NaHCO3, 5.5 mg of KCl, and 60.1 mg of MgSO4 per liter of distilled water in plastic tanks.\n[…]. […] […].\nBioconcentration factor (BCF) was estimated as the ratio between the concentration of the compound in the target organism, at the maximum time of exposure and the mean calculated in the exposure medium (BCF48h). […]\nWhere Cf is the concentration in fish (ng·g^-1), t is the exposure time (h), k1 is the first-order uptake constant (L·kg^-1·h^-1), Cw is the concentration of the chemical in the exposure media (μg·L^-1), and k2 is the first-order elimination rate constant (h^-1). Assuming a negligible concentration in fish samples at t0 and considering its constant in the exposure medium, the equations can be expressed as: 3 Cfuptake=k1/k2.Cw1−e^−k2t 4 Cfdepuration=Cf,0.e^−k2t\nWhere Cf,0 denotes the compound concentration in the organism, when the depuration phase starts. Experimental kinetics data were done using the software NONLIN 5.1, which is specific for no linear adjustments (Nashville, TN). BCFs were calculated applying the two procedures, getting BCF48h (Cf (48h) / Cw (48h)) and BCFk (k1/k2) for comparison purposes when steady state is reached."}, "[6]": {"system": "Japanese medaka (Oryzias latipes)", "conditions": "cited from earlier work; for average concentration in fish: Japanese medaka exposed to fluoxetine, day 7"}, "adult zebrafish": {"system": "adult zebrafish", "conditions": "cited from earlier work"}, "zebrafish larvae": {"system": "zebrafish larvae", "conditions": "cited from earlier work; for calculated BCFs: individual compounds and mixtures at 5, 10 and 25 μg·L^-1"}, "[7]": {"system": "adult male fathead minnows (Phimephales promelas)", "conditions": "plasma, 3, 11 and 28 ng·L^-1 in water; cited from earlier work"}, "[8]": {"conditions": "parent exposure concentration 80 μg·L^-1, t = 6h"}, "[9]": {"conditions": "parent exposure concentration 80 μg·L^-1, t = 24h"}, "[10]": {"conditions": "parent exposure concentration 80 μg·L^-1, t = 45h"}, "[11]": {"conditions": "parent exposure concentration 80 μg·L^-1, t = 48h"}, "[12]": {"conditions": "parent exposure concentration 300 μg·L^-1, t = 6h"}, "[13]": {"conditions": "parent exposure concentration 300 μg·L^-1, t = 24h"}, "[14]": {"conditions": "parent exposure concentration 300 μg·L^-1, t = 45h"}, "[15]": {"conditions": "parent exposure concentration 300 μg·L^-1, t = 48h"}, "[16]": {"conditions": "parent exposure concentration 80 μg·L^-1"}, "[17]": {"conditions": "parent exposure concentration 300 μg·L^-1"}},
  "note": "Counter-ions that a name gives are not always drawn. Like-named read-outs stand apart in the source and are kept apart here.",
  "data": [
    {"smiles": "CN(C)CCCC1(c2ccc(F)cc2)OCc2cc(C#N)ccc21", "note": "(stereo not shown) [Citalopram, citalopram hydrobromide]", "values": [
      {"measurement": "Log kow", "setting": "[1]", "value": 3.74}
    ]},
    {"smiles": "CNCCCC1(c2ccc(F)cc2)OCc2cc(C#N)ccc21", "note": "(stereo not shown) [Desmethylcitalopram, desmethylcitalopram hydrochloride]", "values": [
      {"measurement": "pKa", "setting": "[2]", "value": 10.54},
      {"measurement": "Log kow", "setting": "[1]", "value": 3.38},
      {"measurement": "ratio metabolite / parent compound in the larvae", "setting": "[3]; [8]", "value": 0.07},
      {"measurement": "ratio metabolite / parent compound in the larvae", "setting": "[3]; [9]", "value": 0.06},
      {"measurement": "ratio metabolite / parent compound in the larvae", "setting": "[3]; [10]", "value": 0.15},
      {"measurement": "ratio metabolite / parent compound in the larvae", "setting": "[3]; [11]", "value": 0.54},
      {"measurement": "ratio metabolite / parent compound in the larvae", "setting": "[3]; [12]", "value": 0.47},
      {"measurement": "ratio metabolite / parent compound in the larvae", "setting": "[3]; [13]", "value": 0.78},
      {"measurement": "ratio metabolite / parent compound in the larvae", "setting": "[3]; [14]", "value": 0.15},
      {"measurement": "ratio metabolite / parent compound in the larvae", "setting": "[3]; [15]", "value": 0.26},
      {"measurement": "concentration at 6 h", "setting": "[4]; [16]", "value": 8.9, "unit": "ng/g"},
      {"measurement": "concentration at 24 h", "setting": "[4]; [16]", "value": 10.1, "unit": "ng/g"},
      {"measurement": "concentration at 45 h", "setting": "[4]; [16]", "value": 14.3, "unit": "ng/g"},
      {"measurement": "concentration at 48 h", "setting": "[4]; [16]", "value": 32.3, "unit": "ng/g"},
      {"measurement": "concentration at 6 h", "setting": "[4]; [17]", "value": 118, "unit": "ng/g"},
      {"measurement": "concentration at 24 h", "setting": "[4]; [17]", "value": 297, "unit": "ng/g"},
      {"measurement": "concentration at 45 h", "setting": "[4]; [17]", "value": 203, "unit": "ng/g"},
      {"measurement": "concentration at 48 h", "setting": "[4]; [17]", "value": 123, "unit": "ng/g"},
      {"measurement": "ratio for the metabolite", "setting": "human liver microsomes", "value": "5–10 fold"},
      {"measurement": "BCF48h", "setting": "[5]; nominal 80 μg·L^-1", "value": 0.69},
      {"measurement": "BCF48h", "setting": "[5]; nominal 300 μg·L^-1", "value": 0.21},
      {"measurement": "BCFk", "setting": "[5]; nominal 80 μg·L^-1", "value": 0.7},
      {"measurement": "BCFk", "setting": "[5]; nominal 300 μg·L^-1", "value": 0.35}
    ]},
    {"smiles": "CNCCC(Oc1ccc(C(F)(F)F)cc1)c1ccccc1", "note": "(stereo not shown) [Fluoxetine, Fluoxetine hydrochloride]", "values": [
      {"measurement": "Log kow", "setting": "[1]", "value": 4.65},
      {"measurement": "average concentration in fish", "setting": "[6]", "value": "40.8 ± 5.0", "unit": "ng·g^-1 w.w."},
      {"measurement": "kinetic BCF", "setting": "[6]; Japanese medaka, nominal fluoxetine concentration 640 ng·L^-1", "value": 80},
      {"measurement": "BCF", "setting": "[6]; Japanese medaka, pH 7", "value": 9, "unit": "L/kg"},
      {"measurement": "BCF", "setting": "[6]; Japanese medaka, pH 8", "value": 30, "unit": "L/kg"},
      {"measurement": "BCF", "setting": "[6]; Japanese medaka, pH 9", "value": 260, "unit": "L/kg"},
      {"measurement": "BCF", "setting": "adult zebrafish; exposed to 0.9 and 3.20 μg·L^-1", "value": 20, "unit": "L/kg"},
      {"measurement": "bioaccumulation", "setting": "zebrafish larvae; high concentration exposure 5000 μg·L^-1", "value": 195},
      {"measurement": "calculated BCFs", "setting": "zebrafish larvae", "value": "94–170"},
      {"measurement": "bioaccumulation", "setting": "zebrafish larvae; low and moderate concentrations 10–50 μg·L^-1", "value": "around 30"}
    ]},
    {"smiles": "NCCC(Oc1ccc(C(F)(F)F)cc1)c1ccccc1", "note": "(stereo not shown) [Norfluoxetine, norfluoxetine hydrochloride]", "values": [
      {"measurement": "pKa", "setting": "[2]", "value": 9.05},
      {"measurement": "average concentration in fish", "setting": "[6]", "value": "64.3 ± 8.7", "unit": "ng·g^-1 w.w."}
    ]},
    {"smiles": "N[C@H]1CC[C@@H](c2ccc(Cl)c(Cl)c2)c2ccccc21", "note": "[Norsertraline, norsertraline hydrochloride]", "values": [
      {"measurement": "Log kow", "setting": "[1]", "value": 4.72},
      {"measurement": "metabolite concentration in eleutheroembryos", "setting": "[3]; [8]", "value": 44.4, "unit": "ng/g"},
      {"measurement": "ratio metabolite / parent compound in the larvae", "setting": "[3]; [8]", "value": 0.17},
      {"measurement": "metabolite concentration in eleutheroembryos", "setting": "[3]; [9]", "value": 504.0, "unit": "ng/g"},
      {"measurement": "ratio metabolite / parent compound in the larvae", "setting": "[3]; [9]", "value": 0.12},
      {"measurement": "metabolite concentration in eleutheroembryos", "setting": "[3]; [10]", "value": 751.8, "unit": "ng/g"},
      {"measurement": "ratio metabolite / parent compound in the larvae", "setting": "[3]; [10]", "value": 0.33},
      {"measurement": "metabolite concentration in eleutheroembryos", "setting": "[3]; [11]", "value": 731.3, "unit": "ng/g"},
      {"measurement": "ratio metabolite / parent compound in the larvae", "setting": "[3]; [11]", "value": 0.16},
      {"measurement": "metabolite concentration in eleutheroembryos", "setting": "[3]; [12]", "value": 141.4, "unit": "ng/g"},
      {"measurement": "ratio metabolite / parent compound in the larvae", "setting": "[3]; [12]", "value": 0.17},
      {"measurement": "metabolite concentration in eleutheroembryos", "setting": "[3]; [13]", "value": 1228.7, "unit": "ng/g"},
      {"measurement": "ratio metabolite / parent compound in the larvae", "setting": "[3]; [13]", "value": 0.18},
      {"measurement": "metabolite concentration in eleutheroembryos", "setting": "[3]; [14]", "value": 1968.2, "unit": "ng/g"},
      {"measurement": "ratio metabolite / parent compound in the larvae", "setting": "[3]; [14]", "value": 0.41},
      {"measurement": "metabolite concentration in eleutheroembryos", "setting": "[3]; [15]", "value": 2594.7, "unit": "ng/g"},
      {"measurement": "ratio metabolite / parent compound in the larvae", "setting": "[3]; [15]", "value": 0.47},
      {"measurement": "BCF48h", "setting": "[5]; nominal 50 μg·L^-1", "value": 26.5},
      {"measurement": "BCFk", "setting": "[5]; nominal 50 μg·L^-1", "value": 38}
    ]},
    {"smiles": "Fc1ccc([C@@H]2CCNC[C@H]2COc2ccc3c(c2)OCO3)cc1", "note": "[Paroxetine, paroxetine hemihydrate]", "values": [
      {"measurement": "pKa", "setting": "[2]", "value": 9.90},
      {"measurement": "Log kow", "setting": "[1]", "value": 3.95},
      {"measurement": "calculated BCFs", "setting": "zebrafish larvae", "value": "190–290"}
    ]},
    {"smiles": "CN[C@H]1CC[C@@H](c2ccc(Cl)c(Cl)c2)c2ccccc21", "note": "[Sertraline, sertraline hydrochloride]", "values": [
      {"measurement": "Log kow", "setting": "[1]", "value": 5.29},
      {"measurement": "bioaccumulation values", "setting": "[7]", "value": "approximately 80"},
      {"measurement": "BCF", "setting": "adult zebrafish; exposed to 0.2 and 0.76 μg·L^-1", "value": "50 to 70", "unit": "L/kg"}
    ]}
  ]
}
